Several values for one entry are separate records, joined by “and”; a condition that tells them apart may be missing. Equal values may be shown once. Toxic doses and inconclusive results are not listed.
System: L1210 leukemia ip in BDF1 mice, survival T/C
Assay: NCI In Vivo Anticancer Drug Screen. Data for tumor model L1210 Leukemia (intraperitoneal) in B6D2F1 (BDF1) mice
Settings: endpoint: mean survival time, higher = longer survival
How it was run: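 Tumor was transplanted into mice, which were then dosed with test compound or vehicle alone. Survival was recorded for each group, and the treated figure was expressed relative to the control figure.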

[1] = dose: 100.0 mg/kg/injection, schedule: Q01DX009 (ip), vehicle: saline with Tween-80
[2] = dose: 100.0 mg/kg/injection, schedule: Q04DX003 (ip), vehicle: saline with Tween-80
[3] = dose: 200.0 mg/kg/injection, schedule: Q01DX009 (ip), vehicle: saline with Tween-80
[4] = dose: 200.0 mg/kg/injection, schedule: Q04DX003 (ip), vehicle: saline with Tween-80
[5] = dose: 400.0 mg/kg/injection, schedule: Q04DX003 (ip), vehicle: saline with Tween-80
[6] = dose: 100.0 mg/kg/injection, schedule: Q04DX002 (ip), vehicle: Klucel (hydroxypropylcellulose) (HPC)
[7] = dose: 200.0 mg/kg/injection, schedule: Q04DX002 (ip), vehicle: Klucel (hydroxypropylcellulose) (HPC)
[8] = dose: 400.0 mg/kg/injection, schedule: Q04DX002 (ip), vehicle: Klucel (hydroxypropylcellulose) (HPC)
[9] = dose: 25.0 mg/kg/injection, schedule: Q01DX009 (ip), vehicle: saline
[10] = dose: 100.0 mg/kg/injection, schedule: Q01DX009 (ip), vehicle: saline

For COc1cc(CCl)c(OC)cc1Cl, the T/C [1] was 100 % of control, the T/C [2] was 99 % of control and the T/C [3] was 106 % of control. The T/C [4] was 91 % of control and the T/C [5] was 99 % of control.
In the case of CC1(CCI)NC(=O)NC1=O (configuration not stated), the T/C (dose: 100.0 mg/kg/injection, schedule: Q01DX001 (ip), vehicle: Klucel (hydroxypropylcellulose) (HPC)) is reported as 98 % of control, the T/C (dose: 200.0 mg/kg/injection, schedule: Q01DX001 (ip), vehicle: Klucel (hydroxypropylcellulose) (HPC)) is reported as 104 % of control and the T/C (dose: 400.0 mg/kg/injection, schedule: Q01DX001 (ip), vehicle: Klucel (hydroxypropylcellulose) (HPC)) is reported as 111 % of control.
With CCCCCCCCCCCCCOc1ccc(S(=O)(=O)/N=C(\N)NC(N)=NCCCCCCCCCCCC)cc1 the T/C [6] was 93 % of control, the T/C [7] was 93 % of control and the T/C [8] was 86 % of control.
With CNC(=N)c1ccc(NC(=N)c2ccc(NC(=N)c3ccc(NC(=O)Nc4ccc(C#N)cc4)cc3)cc2)cc1 the T/C (dose: 3.25 mg/kg/injection, schedule: Q01DX015 (ip), vehicle: water) was 119 % of control, the T/C (dose: 13.0 mg/kg/injection, schedule: Q01DX015 (ip), vehicle: water) was 160 % of control and the T/C (dose: 17.0 mg/kg/injection, schedule: Q01DX Z (ip), vehicle: water) was 152 % of control. For the same molecule, the T/C (dose: 26.0 mg/kg/injection, schedule: Q01DX015 (ip), vehicle: water) was 205 % of control, the T/C (dose: 30.0 mg/kg/injection, schedule: Q01DX001 (ip), vehicle: water) was 112 % of control and the T/C (dose: 32.5 mg/kg/injection, schedule: Q01DX001 (ip), vehicle: water) was 180 % of control. The T/C (dose: 34.0 mg/kg/injection, schedule: Q01DX Z (ip), vehicle: water) was 153 % of control, the T/C (dose: 50.0 mg/kg/injection, schedule: Q01DX001 (ip), vehicle: water) was 151 % of control and the T/C (dose: 65.0 mg/kg/injection, schedule: Q01DX001 (ip), vehicle: water) was 165 % of control and 210 % of control and 228 % of control. For the same molecule, the T/C (dose: 97.0 mg/kg/injection, schedule: Q01DX001 (ip), vehicle: water) was 232 % of control and 267 % of control.
For CC1(C)OC2COC(c3[nH]nc4c(=O)[nH]c(=O)[nH]c34)C2O1 (configuration not stated), the T/C [9] was 96 % of control, the T/C (dose: 100.0 mg/kg/injection, schedule: Q01DX005 (ip), vehicle: saline) was 101 % of control and the T/C [10] was 188 % of control.
For O=C(N1CCC(CCCc2ccccc2)CC1)C(Cl)(Cl)Cl, the T/C [6] was 95 % of control, the T/C [7] was 95 % of control and the T/C [8] was 100 % of control.
In the case of COc1cccc(NC(=S)NN)c1, the T/C (dose: 12.5 mg/kg/injection, schedule: Q04DX002 (ip), vehicle: Klucel (hydroxypropylcellulose) (HPC)) is reported as 92 % of control and the T/C (dose: 25.0 mg/kg/injection, schedule: Q04DX002 (ip), vehicle: Klucel (hydroxypropylcellulose) (HPC)) is reported as 117 % of control.
In the case of O=C1OC(Cc2ccccc2)(c2ccccc2)c2ccccc21 (configuration not stated), the T/C (dose: 50.0 mg/kg/injection, schedule: Q01DX009 (ip), vehicle: saline with Tween-80) is reported as 90 % of control, the T/C [1] is reported as 88 % of control and the T/C [3] is reported as 89 % of control.
With CCOC(=O)NC#N (tested in a mixture with another compound) the T/C (dose: 10.0 mg/kg/injection, schedule: Q01DX001 (ip), vehicle: saline) was 98 % of control, the T/C (dose: 20.0 mg/kg/injection, schedule: Q01DX001 (ip), vehicle: saline) was 102 % of control and the T/C (dose: 40.0 mg/kg/injection, schedule: Q01DX001 (ip), vehicle: saline) was 102 % of control.
With COc1ccc([N+](=O)[O-])cc1NC(=O)N(c1ccccc1)C(C)C the T/C (dose: 50.0 mg/kg/injection, schedule: Q01DX009 (ip), vehicle: Klucel (hydroxypropylcellulose) (HPC)) was 101 % of control, the T/C (dose: 100.0 mg/kg/injection, schedule: Q01DX009 (ip), vehicle: Klucel (hydroxypropylcellulose) (HPC)) was 107 % of control and the T/C (dose: 200.0 mg/kg/injection, schedule: Q01DX009 (ip), vehicle: Klucel (hydroxypropylcellulose) (HPC)) was 86 % of control.
CCCCCCCCC(C(=O)c1ccccc1)=C(C(F)(F)F)C(F)(F)F was tested, and the T/C [9] was 100 % of control, the T/C (dose: 50.0 mg/kg/injection, schedule: Q01DX009 (ip), vehicle: saline) was 96 % of control and the T/C [10] was 91 % of control. For the same molecule, the T/C [2] was 86 % of control, the T/C [4] was 90 % of control and the T/C [5] was 95 % of control.
For CCC(C)(C)c1cc(Sc2cc(C(C)(C)CC)cc(C(C)(C)CC)c2O)c(O)c(C(C)(C)CC)c1, the T/C (dose: 100.0 mg/kg/injection, schedule: Q04DX003 (ip), vehicle: saline) was 109 % of control, the T/C (dose: 200.0 mg/kg/injection, schedule: Q04DX003 (ip), vehicle: saline) was 100 % of control and the T/C (dose: 400.0 mg/kg/injection, schedule: Q04DX003 (ip), vehicle: saline) was 88 % of control.
